# Experimental data: ChEMBL document CHEMBL1130878 (Bioorg Med Chem Lett, 1998)
# What was measured:
# [1] = molecular target: T1, Endothelin receptor type B (Sus scrofa, UniProt P35463); assay: In vitro ability to inhibit specific [125I]ET1 binding to porcine kidney (inner medulla) membranes Endothelin B receptor
# T1 sequence (P35463 whole entry): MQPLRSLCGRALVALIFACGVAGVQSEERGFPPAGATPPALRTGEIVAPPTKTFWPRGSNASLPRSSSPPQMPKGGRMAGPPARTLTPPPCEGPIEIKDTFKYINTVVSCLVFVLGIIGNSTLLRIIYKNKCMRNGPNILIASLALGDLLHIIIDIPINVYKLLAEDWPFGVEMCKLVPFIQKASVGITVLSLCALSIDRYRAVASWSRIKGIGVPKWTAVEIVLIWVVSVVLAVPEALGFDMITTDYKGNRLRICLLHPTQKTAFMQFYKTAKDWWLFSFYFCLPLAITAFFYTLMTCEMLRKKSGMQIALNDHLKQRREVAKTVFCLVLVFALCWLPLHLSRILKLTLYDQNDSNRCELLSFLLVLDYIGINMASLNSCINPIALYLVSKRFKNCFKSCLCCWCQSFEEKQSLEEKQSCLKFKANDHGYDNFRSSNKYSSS
# Endothelin-1 receptor = molecular target: T2, Endothelin-1 receptor (Rattus norvegicus, UniProt P26684); assay: In vitro ability to inhibit specific [125I]ET1 binding to rat aorta membranes Endothelin A receptor; assay type: tissue-based
# T2 sequence (P26684 whole entry): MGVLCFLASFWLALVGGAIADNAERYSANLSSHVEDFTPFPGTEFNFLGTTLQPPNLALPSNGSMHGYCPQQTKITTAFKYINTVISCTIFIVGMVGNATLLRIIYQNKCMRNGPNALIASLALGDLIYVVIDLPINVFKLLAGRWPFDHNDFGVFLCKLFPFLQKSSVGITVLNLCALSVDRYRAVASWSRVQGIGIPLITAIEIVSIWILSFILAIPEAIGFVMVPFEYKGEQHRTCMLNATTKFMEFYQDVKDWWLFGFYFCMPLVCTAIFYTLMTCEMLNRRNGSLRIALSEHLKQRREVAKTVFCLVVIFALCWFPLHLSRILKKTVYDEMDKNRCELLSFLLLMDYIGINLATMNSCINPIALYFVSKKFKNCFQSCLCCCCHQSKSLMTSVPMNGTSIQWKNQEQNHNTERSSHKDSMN
structure (smiles),measurement,setting,value
COc1cccc(C(=O)/C(Cc2cc(OC)c(OC)c(OC)c2)=C(\C(=O)O)c2ccc3nsnc3c2)c1,IC50,[1],1800 nM
same,IC50,Endothelin-1 receptor,4.6 nM
COc1ccc(C(=O)/C(Cc2ccc3c(c2)OCO3)=C(\C(=O)O)c2ccc3nsnc3c2)cc1,IC50,[1],1500 nM
same,IC50,Endothelin-1 receptor,66 nM
COc1ccc(C(=O)/C(Cc2ccccc2OC)=C(\C(=O)O)c2ccc3nsnc3c2)cc1,IC50,[1],820 nM
same,IC50,Endothelin-1 receptor,3.4 nM
